Assay [1] has as its target T1, PIM1 serine/threonine kinase (Homo sapiens, UniProt P11309).
T1 construct: purchased Carna Bioscience, Inc
As to the kind of experiment: PIM1 serine/threonine kinase inhibitory effect. The format is biochemical. The following applies: PIM1 serine/threonine kinase activity; ATP 40 μM; 30° C., 30 minutes. An outline of the steps:
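Recombinant PIM1 (0.15 μg/ml final) with 0.5 μM biotinylated substrate and 40 μM ATP in pH 7.0 HEPES/MgCl2 buffer, 30 min at 30° C. Compound range was 0.01–10000 nM final, n=2. HTRF detection with streptavidin-XL665 and anti-phospho antibody-cryptate, 1 h; IC50 from non-linear regression of the 665/620 ratio.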

For assay [2], the target named is T2, PIM2 serine/threonine kinase (Homo sapiens, UniProt Q9P1W9).
T2 construct: purchased Carna Bioscience, Inc
T2 sequence (Q9P1W9 whole entry): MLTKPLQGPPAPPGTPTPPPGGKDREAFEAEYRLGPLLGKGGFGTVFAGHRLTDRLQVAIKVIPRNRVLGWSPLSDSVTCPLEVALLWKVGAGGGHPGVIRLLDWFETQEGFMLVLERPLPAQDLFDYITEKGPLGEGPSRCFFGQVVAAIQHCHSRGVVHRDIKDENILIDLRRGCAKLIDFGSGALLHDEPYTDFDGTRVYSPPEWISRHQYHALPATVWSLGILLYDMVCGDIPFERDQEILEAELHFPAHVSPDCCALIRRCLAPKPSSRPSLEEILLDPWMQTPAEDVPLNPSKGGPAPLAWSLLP
Put plainly: PIM2 serine/threonine kinase inhibitory effect. The assay is classed as biochemical. Conditions: PIM2 serine/threonine kinase activity; ATP 2 μM; 30° C., 30 minutes. On the procedure:
(§1) Each test substance was prepared to 10 mM with dimethylsulfoxide (DMSO), and further diluted with DMSO so as to have concentrations of 1000, 300, 100, 30, 10, 3, 1, 0.3, 0.1, 0.03, 0.01, and 0.001 μM. Moreover, each dilution was further diluted 33.3-fold with an assay buffer to prepare a test substance solution. The composition of the assay buffer was 50 mM HEPES (pH 7.0), 0.02% NaN3, 0.01% Bovine Serum Albumin, 0.1 mM Orthovanadate, 1 mM Dithiothreitol, and 5 mM MgCl2.
(§2) 5 μL of each test substance solution was added to 384-well plates (n=2), and then 2.5 μL of a substrate solution (substrate 3-biotin (Cisbio Bioassays SAS), final concentration in the reaction solution: 0.5 μM) and 2.5 μL of an ATP solution (in the cases of PIM1, 2, 3, the final concentrations in the reaction solutions were 40, 2, and 10 μM, respectively) were added, 5 μL of each of PIM1, 2, 3 serine/threonine kinase solutions (Carna Bioscience, Inc., the final concentrations in the reaction solutions were 0.15, 1.6, and 0.25 μg/ml, respectively) was finally added, and the mixture was reacted at 30° C. for 30 minutes. The test substance concentrations in the reaction solutions are 10000, 3000, 1000, 300, 100, 30, 10, 3, 1, 0.3, 0.1, and 0.01 nM.
(§3) Thereafter, 15 μL of each detection solution (62.5 nM Streptavidin-XL665 (Cisbio Bioassays SAS), […] STK antibody-Cryptate (Cisbio Bioassays SAS), 50 mM HEPES (pH 7.0), 0.8 M KF, 0.1% Bovine Serum Albumin, 20 mM ethylenediaminetetraacetic acid) was added to each well. After stirring, the mixture was reacted at 30° C. for 1 hour. Absorbance (OD620, OD665) at 620 and 665 nm was measured with a microplate reader (SpectraMax M5e, Molecular Devices, LLC).
(§4) Non-linear regression analysis was performed by an SAS system (SAS Institute Inc.) using the ratio (OD665/OD620) of the measured absorbance to calculate a test substance concentration (IC50) that inhibits PIM1 serine/threonine kinase activity by 50%.
(§5) For the compounds with the following Example numbers, in addition to the above PIM1 serine/threonine kinase activity (IC50), test substance concentrations (IC50) that inhibit PIM2 serine/threonine kinase activity and PIM3 serine/threonine kinase activity by 50% were calculated.

Assay [3] concerns the target T3, PIM3 serine/threonine kinase (Homo sapiens, UniProt Q86V86).
T3 construct: purchased Carna Bioscience, Inc
As to the kind of experiment: PIM3 serine/threonine kinase inhibitory effect. The format is biochemical. The following applies: PIM3 serine/threonine kinase activity; ATP 10 μM; 30° C., 30 minutes. How it is done:
as §1, §2, §3, §4, §5

For assay [4], the target named is PIM1 transgenic cells (Ba/F3) (Homo sapiens, UniProt P11309). As to the kind of experiment: Proliferation inhibitory effect on PIM1 transgenic cells. The format is cell-based, mouse. The following applies: proliferation inhibition, 72 hours, Cell Counting Kit-8, read-out: PIM1 IC50. An outline of the steps: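 Mouse Ba/F3 pro-B cells were retrovirally transduced with human PIM1 so that their proliferation depends on PIM1. Cells were treated with compound at 1–10000 nM final for 72 h, then read by CCK-8 (OD450−OD650). Inhibition was set against DMSO (0%) and no-cell blank (100%), and IC50 was obtained by two-parameter logistic regression.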
PIM1 transgenic cells (Ba/F3), sequence (P11309 whole entry, stated change not applied): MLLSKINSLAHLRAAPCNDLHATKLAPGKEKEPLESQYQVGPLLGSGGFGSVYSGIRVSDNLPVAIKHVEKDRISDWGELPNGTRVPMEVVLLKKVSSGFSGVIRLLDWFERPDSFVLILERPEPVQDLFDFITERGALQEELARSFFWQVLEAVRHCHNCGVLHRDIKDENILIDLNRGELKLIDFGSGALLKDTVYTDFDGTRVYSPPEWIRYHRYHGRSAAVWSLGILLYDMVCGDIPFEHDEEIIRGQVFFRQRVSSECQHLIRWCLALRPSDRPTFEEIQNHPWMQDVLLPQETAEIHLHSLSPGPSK

Assay [5] deals with graft-versus-host disease model CB6F1 mice. Put plainly: Lymphocyte proliferation inhibitory effect using graft-versus-host disease model animals (splenomegaly formation). The format is in vivo. Conditions: Mus musculus, 240 h, oral, twice a day for 10 days, GVHD model CB6F1 mice, read-out: Inhibition rate (%) (splenomegaly formation); for inhibition in vivo at 10 mg/kg: single dose 10 mg/kg; for inhibition in vivo at 20 mg/kg: single dose 20 mg/kg; for inhibition in vivo at 6 mg/kg: single dose 6 mg/kg. On the procedure: BALB/c mice (8-week-aged female) were euthanized, and then the spleen was removed from each mouse. Then, hemolysis treatment was performed to isolate spleen cells. The obtained spleen cells were intravenously transplanted into CB6F1 mice (8-week-aged female), which are C57BL/6 and BALB/c F1 mice, to prepare a model, and splenomegaly was induced. For transplantation, spleen cells for 1.2 BALB/c mouse were used for one CB6F1 mouse.
Each test substance shown in Table 64 was weighed and dissolved in a 0.5% methyl cellulose solution, thereby preparing test substance solutions of 0.3 to 10 mg/mL.
A vehicle (0.5% methyl cellulose solution) or test substance was orally administered to each CB6F1 mouse after transplantation at a dose of 3 to 50 mg/kg in terms of body weight twice a day for 10 days from the day after transplantation. The mouse was euthanized on the 11th day from the start of administration, then the spleen was removed therefrom, and the wet weight of the spleen was measured. For each of CB6F1 mice that had not undergone transplantation as a control group, the wet weight of the spleen was also measured.
The splenomegaly formation inhibition rate when the spleen weights of the mice to which the vehicle was administered after transplantation and the mice on which transplantation had not been performed were 0% and 100%, respectively, was calculated.

Where a name gives a salt, the structure may show the parent alone.

T1 sequence (P11309 whole entry): as the sequence (P11309 whole entry, stated change not applied) above

For `NCc1cccc(-c2cc(-c3n[nH]c(=O)o3)ccc2Cl)c1` [Example 18, 5-[3′-(aminomethyl)-6-chloro[1,1′-biphenyl]-3-yl]-1,3,4-oxadiazol-2(3H)-one hydrochloride], the IC50 was 64 nM in assay [1], 220 nM in assay [2] and 340 nM in assay [3].

With `O=c1[nH]nc(-c2ccc(C(F)(F)F)c(-c3cncc(N4CCNCC4)c3)c2)o1` [Example 25, 5-{3-[5-(piperazin-1-yl)pyridin-3-yl]-4-(trifluoromethyl)phenyl}-1,3,4-oxadiazol-2(3H)-one dihydrochloride], the IC50 in assay [1] is 180 nM; in assay [2] it was 770 nM; in assay [3], 740 nM.

As for `N[C@H]1CC[C@H](Nc2cc(-c3n[nH]c(=O)o3)ccc2C(F)(F)F)CC1` [Example 34, 5-[3-{[(1r,4r)-4-aminocyclohexyl]amino}-4-(trifluoromethyl)phenyl]-1,3,4-oxadiazol-2(3H)-one hydrochloride], the IC50 in assay [1] is 4 nM; in assay [2], 25 nM; in assay [3] it was 16 nM. Further, in assay [4], the GI50 came out at 910 nM.

As to `NC[C@H]1CC[C@H](Nc2cc(-c3n[nH]c(=O)o3)ccc2C(F)(F)F)CC1` [Example 37, 5-[3-{[(1r,4r)-4-(aminomethyl)cyclohexyl]amino}-4-(trifluoromethyl)phenyl]-1,3,4-oxadiazol-2(3H)-one hydrochloride], the IC50 came out at 2 nM in assay [1], 11 nM in assay [2] and 10 nM in assay [3]. In assay [4], the GI50 is 280 nM.

With `CC(Nc1cc(-c2n[nH]c(=O)o2)ccc1C(F)(F)F)C1CCNCC1` (stereo not drawn) [Example 52, 5-[3-{[1-(piperidin-4-yl)ethyl]amino}-4-(trifluoromethyl)phenyl]-1,3,4-oxadiazol-2(3H)-one hydrochloride], the IC50 in assay [1] amounted to 4.2 nM; in assay [2] it was 19 nM; in assay [3], 12 nM. Moreover, the GI50 in assay [4] is 59 nM.

With `N[C@H]1CC[C@H](CNc2cc(-c3n[nH]c(=O)o3)ccc2C(F)(F)F)CC1` [Example 55, 5-[3-({[(1r,4r)-4-aminocyclohexyl]methyl}amino)-4-(trifluoromethyl)phenyl]-1,3,4-oxadiazol-2(3H)-one hydrochloride], the IC50 in assay [1] was 0.7 nM; in assay [2] it was 14 nM; in assay [3], 5 nM. Besides, the GI50 in assay [4] worked out at 34 nM.

In assay [1], `C[C@H](Nc1cc(-c2n[nH]c(=O)o2)cc(F)c1C(F)(F)F)[C@H]1CC[C@H](N)CC1` [Example 151, 5-[3-({(1S)-1-[(1r,4S)-4-aminocyclohexyl]ethyl}amino)-5-fluoro-4-(trifluoromethyl)phenyl]-1,3,4-oxadiazol-2(3H)-one hydrochloride] gave an IC50 of 1.8 nM. In addition, the GI50 in assay [4] is 17 nM. In addition, in assay [5], the inhibition in vivo at 10 mg/kg came out at 33.8% and the inhibition in vivo at 20 mg/kg was found to be 40.3%.

For the compound `Cc1c(F)cc(-c2n[nH]c(=O)o2)cc1N[C@@H](C)[C@H]1CC[C@H](N)CC1` [Example 172, 5-[3-({(1S)-1-[(1r,4S)-4-aminocyclohexyl]ethyl}amino)-5-fluoro-4-methylphenyl]-1,3,4-oxadiazol-2(3H)-one dihydrochloride], in assay [1], the IC50 was determined as 2.5 nM. Besides, the GI50 in assay [4] is 49 nM. In assay [5], the inhibition in vivo at 20 mg/kg worked out at 19.3%.

`C[C@H](Nc1cc(-c2n[nH]c(=O)o2)cc(F)c1Cl)[C@H]1CC[C@H](N)CC1` [Example 177, 5-[3-({(1S)-1-[(1r,4S)-4-aminocyclohexyl]ethyl}amino)-4-chloro-5-fluorophenyl]-1,3,4-oxadiazol-2(3H)-one hydrochloride] gave an IC50 in assay [1] of 0.8 nM. In addition, the GI50 in assay [4] worked out at 26 nM. In assay [5], the inhibition in vivo at 10 mg/kg worked out at 23.7% and the inhibition in vivo at 20 mg/kg was 39.2%.

Compound `C[C@@H]1CNCC[C@@H]1[C@H](C)Nc1cc(-c2n[nH]c(=O)o2)cc(F)c1C(F)(F)F` [Example 210, 5-[3-fluoro-5-({(1S)-1-[(3S,4S)-3-methylpiperidin-4-yl]ethyl}amino)-4-(trifluoromethyl)phenyl]-1,3,4-oxadiazol-2(3H)-one] registered an IC50 in assay [1] of 1.3 nM. Further, the GI50 in assay [4] came out at 15 nM. Moreover, in assay [5], the inhibition in vivo at 10 mg/kg turned out to be 44.9% and the inhibition in vivo at 20 mg/kg came to 48.4%.

In assay [1], `C[C@@H]1CNCC[C@@H]1[C@H](C)Nc1cc(-c2n[nH]c(=O)o2)cc(F)c1OC(F)F` [Example 214, 5-[4-(difluoromethoxy)-3-fluoro-5-({(1S)-1-[(3S,4S)-3-methylpiperidin-4-yl]ethyl}amino)phenyl]-1,3,4-oxadiazol-2(3H)-one] had an IC50 of 1.8 nM. Further, the GI50 in assay [4] worked out at 34 nM. In assay [5], the inhibition in vivo at 10 mg/kg is 23.3% and the inhibition in vivo at 20 mg/kg stood at 25.3%.

Consider `C[C@@H]1CNCC[C@@H]1[C@H](C)Nc1cc(-c2n[nH]c(=O)o2)ccc1C(F)(F)F` [Example 217, 5-[3-({(1S)-1-[(3S,4S)-3-methylpiperidin-4-yl]ethyl}amino)-4-(trifluoromethyl)phenyl]-1,3,4-oxadiazol-2(3H)-one], for which, in assay [1], the IC50 is 2.8 nM. Also, in assay [4], the GI50 is 26 nM. In addition, in assay [5], the inhibition in vivo at 10 mg/kg was determined as 36.3% and the inhibition in vivo at 20 mg/kg turned out to be 41.7%.

For `Cc1c(F)cc(-c2n[nH]c(=O)o2)cc1N[C@@H](C)[C@H]1CCNC[C@H]1F` [Example 227, 5-[3-fluoro-5-({(1S)-1-[(3S,4R)-3-fluoropiperidin-4-yl]ethyl}amino)-4-methylphenyl]-1,3,4-oxadiazol-2(3H)-one], 7.7 nM corresponded to half-maximal inhibition in assay [1] (IC50). The GI50 in assay [4] is 24 nM. Moreover, in assay [5], the inhibition in vivo at 6 mg/kg was found to be 16.7% and the inhibition in vivo at 20 mg/kg was found to be 32.7%.

`Cc1c(F)cc(-c2n[nH]c(=O)o2)cc1N[C@@H](C)[C@H]1CCNC[C@H]1C` [Example 228]: the IC50 in assay [1] was 4.7 nM. In addition, the GI50 in assay [4] was determined as 15 nM. Moreover, in assay [5], the inhibition in vivo at 6 mg/kg is 36.7% and the inhibition in vivo at 20 mg/kg was found to be 33.3%.

`CC[C@@H]1CNCC[C@@H]1[C@H](C)Nc1cc(-c2n[nH]c(=O)o2)cc(F)c1C` [Example 229, 5-[3-({(1S)-1-[(3S,4S)-3-ethylpiperidin-4-yl]ethyl}amino)-5-fluoro-4-methylphenyl]-1,3,4-oxadiazol-2(3H)-one]: in assay [1], 5.1 nM corresponded to half-maximal inhibition (IC50). In addition, in assay [4], the GI50 came to 19 nM. Also, in assay [5], the inhibition in vivo at 6 mg/kg stood at 14.4% and the inhibition in vivo at 20 mg/kg turned out to be 35.1%.

Source of the values: patent publication US20220024921A1, “1,3,4-OXADIAZOLONE COMPOUND AND PHARMACEUTICAL” (NIPPON SHINYAKU CO., LTD., priority 2018, published 2022).
